Results as given in patent publication US12421240B2, “Hydropyrazino[1,2-d][1,4]diazepine compounds for the treatment of autoimmune disease” (Hoffmann-La Roche Inc., priority 2019, dated 2025).

Tests used:
[1] = biological target: T1, human TLR7 (Homo sapiens, UniProt Q9NYK1); experiment: HEK293-Blue-hTLR-7 cells assay (SEAP reporter, R848 stimulation); type: cell-based; conditions: HEK293-Blue-hTLR7 cells, R848 ligand, 20 hrs; read-out: HEK/hTLR7 IC50
T1 sequence (Q9NYK1 27-1049): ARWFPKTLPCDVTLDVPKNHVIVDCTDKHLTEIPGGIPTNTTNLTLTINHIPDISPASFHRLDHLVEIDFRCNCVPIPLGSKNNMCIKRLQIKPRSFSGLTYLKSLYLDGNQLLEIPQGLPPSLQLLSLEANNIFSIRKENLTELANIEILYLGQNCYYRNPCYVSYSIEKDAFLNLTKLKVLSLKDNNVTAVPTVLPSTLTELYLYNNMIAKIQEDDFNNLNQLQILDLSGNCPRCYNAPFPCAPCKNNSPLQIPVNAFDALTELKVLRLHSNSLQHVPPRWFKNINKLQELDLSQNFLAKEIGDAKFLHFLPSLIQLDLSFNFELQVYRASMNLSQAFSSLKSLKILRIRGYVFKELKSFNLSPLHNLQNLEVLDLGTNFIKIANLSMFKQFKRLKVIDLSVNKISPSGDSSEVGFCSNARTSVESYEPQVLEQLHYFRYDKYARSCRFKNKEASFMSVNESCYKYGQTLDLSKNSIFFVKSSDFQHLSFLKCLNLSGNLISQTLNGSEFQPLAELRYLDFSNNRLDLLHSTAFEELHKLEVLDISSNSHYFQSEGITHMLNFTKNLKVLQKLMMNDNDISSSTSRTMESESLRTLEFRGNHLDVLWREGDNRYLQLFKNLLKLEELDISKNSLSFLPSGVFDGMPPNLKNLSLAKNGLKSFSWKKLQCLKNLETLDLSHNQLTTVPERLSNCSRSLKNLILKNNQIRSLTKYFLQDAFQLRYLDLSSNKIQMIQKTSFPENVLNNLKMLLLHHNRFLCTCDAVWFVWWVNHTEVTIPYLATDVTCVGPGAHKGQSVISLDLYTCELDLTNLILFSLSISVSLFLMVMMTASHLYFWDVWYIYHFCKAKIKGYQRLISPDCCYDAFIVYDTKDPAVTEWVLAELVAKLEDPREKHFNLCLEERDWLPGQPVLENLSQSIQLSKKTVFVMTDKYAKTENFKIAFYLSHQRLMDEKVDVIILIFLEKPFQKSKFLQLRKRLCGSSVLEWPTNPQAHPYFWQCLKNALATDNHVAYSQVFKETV
Method: The following tests were carried out in order to determine the activity of the compounds of formula (I), (Ia) or (Ib) in HEK293-Blue-hTLR-7/8/9 cells assay.
HEK293-Blue-hTLR-7 Cells Assay:
A stable HEK293-Blue-hTLR-7 cell line was purchased from InvivoGen (Cat. #: hkb-htlr7, San Diego, California, USA). These cells were originally designed for studying the stimulation of human TLR7 by monitoring the activation of NF-κB. A SEAP (secreted embryonic alkaline phosphatase) reporter gene was placed under the control of the IFN-β minimal promoter fused to five NF-κB and AP-1-binding sites. The SEAP was induced by activating NF-κB and AP-1 via stimulating HEK-Blue hTLR7 cells with TLR7 ligands. Therefore the reporter expression was declined by TLR7 antagonist under the stimulation of a ligand, such as R848 (Resiquimod), for incubation of 20 hrs. The cell culture supernatant SEAP reporter activity was determined using QUANTI-Blue™ kit (Cat. #: rep-qb1, Invivogen, San Diego, Ca., USA) at a wavelength of 640 nm, a detection medium that turns purple or blue in the presence of alkaline phosphatase.
HEK293-Blue-hTLR7 cells were incubated at a density of 250,000-450,000 cells/mL in a volume of 170 μL in a 96-well plate in Dulbecco's Modified Eagle's medium (DMEM) containing 4.5 g/L glucose, 50 U/mL penicillin, […], […], 2 mM L-glutamine, 10% (v/v) heat-inactivated fetal bovine serum with addition of 20 μL test compound in a serial dilution in the presence of final DMSO at 1% and 10 μL of 20 uM R848 in above DMEM, perform incubation under 37° C. in a CO2 incubator for 20 hrs. Then 20 μL of the supernatant from each well was incubated with 180 μL Quanti-blue substrate solution at 37° C. for 2 hrs and the absorbance was read at 620655 nm using a spectrophotometer. The signaling pathway that TLR7 activation leads to downstream NF-κB activation has been widely accepted, and therefore similar reporter assay was modified for evaluating TLR7 antagonist.

[2] = Human microsomal stability assay; type: in vitro ADME; conditions: human liver microsomes, 1 μM test compound, 0.5 mg/mL protein, 37° C.; low <7.0, medium 7.0-16.2, high 16.2-23.2
Method: Human Microsomal Stability Assay
Human liver microsomes (Cat. NO.: 452117, Corning, USA) were preincubated with test compound for 10 minutes at 37° C. in 100 mM potassium phosphate buffer, pH 7.4. The reactions were initiated by adding NADPH regenerating system. The final incubation mixtures contained 1 μM test compound, 0.5 mg/mL liver microsomal protein, 1 mM MgCl2, 1 mM NADP, 1 unit/mL isocitric dehydrogenase and 6 mM isocitric acid in 100 mM potassium phosphate buffer, pH 7.4. After incubation times of 0, 3, 6, 9, 15 and 30 minutes at 37° C., 300 μL of cold ACN (including internal standard) was added to 100 μL incubation mixture to terminate the reaction. Following precipitation and centrifugation, 100 uL supernatant will be taken out and added 300 uL water. The amount of compound remaining in the samples was determined by LC-MS/MS. Controls of no NADPH regenerating system at zero and 30 minutes were also prepared and analyzed. The results were categorized as: low (<7.0 mL/min/kg), medium (7.0-16.2 mL/min/kg) and high (16.2-23.2 mL/min/kg).

| SMILES | IC50 [1] [nM] | CL (h) [2] [mL/min/kg] |
| --- | --- | --- |
| C[C@@H]1CN(c2ccc(C#N)c3ncccc23)C[C@@H]2CCN(Cc3ccc(N4CCOC[C@H](N)C4)cn3)CCN21 [Example 21, 5-[(4R,10aS)-8-[[5-[(6R)-6-amino-1,4-oxazepan-4-yl]-2-pyridyl]methyl]-4-methyl-1,3,4,6,7,9,10,10a-octahydropyrazino[1,2-d][1,4]diazepin-2-yl]quinoline-8-carbonitrile] | 59.9 | 8.5 |
| CO[C@@H]1CN(c2cnc(CN3CC[C@H]4CN(c5ccc(C#N)c6ncccc56)C[C@@H](C)N4CC3)c(F)c2)C[C@H]1N [Example 24, 5-[(4R,10aS)-8-[[5-[(3R,4R)-3-amino-4-methoxy-pyrrolidin-1-yl]-3-fluoro-2-pyridyl]methyl]-4-methyl-1,3,4,6,7,9,10,10a-octahydropyrazino[1,2-d][1,4]diazepin-2-yl]quinoline-8-carbonitrile] | 3.2 | 9.4 |
| C[C@@H]1CN(c2ccc(C#N)c3ncccc23)C[C@@H]2CCN(Cc3cnc(N4CCNCC4)nc3)CCN21 [Example 14, 5-[(4R,10aS)-4-methyl-8-[(2-piperazin-1-ylpyrimidin-5-yl)methyl]-1,3,4,6,7,9,10,10a-octahydropyrazino[1,2-d][1,4]diazepin-2-yl]quinoline-8-carbonitrile] | 1.8 | 9.8 |
| C[C@@H]1CN(c2cc(=O)n(C)c3ncccc23)C[C@@H]2CCN(Cc3ccc4c(c3)CNCC4)CCN21 [Example 28, 4-[(4R,10aS)-4-methyl-8-(1,2,3,4-tetrahydroisoquinolin-7-ylmethyl)-1,3,4,6,7,9,10,10a-octahydropyrazino[1,2-d][1,4]diazepin-2-yl]-1-methyl-1,8-naphthyridin-2-one] | 36.3 | 6.5 |
| C[C@@H]1CN(c2ccc(C#N)c3ncccc23)C[C@@H]2CCN(Cc3cnc(N4CCNCC4)cn3)CCN21 [Example 15, 5-[(4R,10aS)-4-methyl-8-[(5-piperazin-1-ylpyrazin-2-yl)methyl]-1,3,4,6,7,9,10,10a-octahydropyrazino[1,2-d][1,4]diazepin-2-yl]quinoline-8-carbonitrile] | 2.2 | 9.9 |
| C[C@@H]1CN(c2ccc(C#N)c3ncccc23)C[C@@H]2CCN(Cc3ccc(N4CCNCC4)nc3)CCN21 [Example 17, 5-[(4R,10aS)-4-methyl-8-[(6-piperazin-1-yl-3-pyridyl)methyl]-1,3,4,6,7,9,10,10a-octahydropyrazino[1,2-d][1,4]diazepin-2-yl]quinoline-8-carbonitrile] | 1.2 | 9.2 |
| C[C@@H]1CN(c2ccc(C#N)c3ncccc23)C[C@@H]2CCN(Cc3ccc4c(c3)CCNC4)CCN21 [Example 11, 5-[(4R,10aS)-4-methyl-8-(1,2,3,4-tetrahydroisoquinolin-6-ylmethyl)-1,3,4,6,7,9,10,10a-octahydropyrazino[1,2-d][1,4]diazepin-2-yl]quinoline-8-carbonitrile] | 6.1 | 8.2 |
| C[C@@H]1CN(c2ccc(C#N)c3ncccc23)C[C@@H]2CCN(Cc3ncc(N4CCNCC4)cc3F)CCN21 [Example 23, 5-[(4R,10aS)-8-[(3-fluoro-5-piperazin-1-yl-2-pyridyl)methyl]-4-methyl-1,3,4,6,7,9,10,10a-octahydropyrazino[1,2-d][1,4]diazepin-2-yl]quinoline-8-carbonitrile] | 2.9 | 8.8 |
| C[C@@H]1CN(c2ccc(C#N)c3ncccc23)C[C@@H]2CCN(c3ccc([C@H]4CNCCO4)cc3)CCN21 [Example 3, 5-[(4R,10aS)-4-methyl-8-[4-[(2S)-morpholin-2-yl]phenyl]-1,3,4,6,7,9,10,10a-octahydropyrazino[1,2-d][1,4]diazepin-2-yl]quinoline-8-carbonitrile] | 54 |  |
